This data set concerns the target T1, Cytochrome P450 11B1, mitochondrial (Homo sapiens, UniProt P15538).
T1 sequence (P15538 whole entry): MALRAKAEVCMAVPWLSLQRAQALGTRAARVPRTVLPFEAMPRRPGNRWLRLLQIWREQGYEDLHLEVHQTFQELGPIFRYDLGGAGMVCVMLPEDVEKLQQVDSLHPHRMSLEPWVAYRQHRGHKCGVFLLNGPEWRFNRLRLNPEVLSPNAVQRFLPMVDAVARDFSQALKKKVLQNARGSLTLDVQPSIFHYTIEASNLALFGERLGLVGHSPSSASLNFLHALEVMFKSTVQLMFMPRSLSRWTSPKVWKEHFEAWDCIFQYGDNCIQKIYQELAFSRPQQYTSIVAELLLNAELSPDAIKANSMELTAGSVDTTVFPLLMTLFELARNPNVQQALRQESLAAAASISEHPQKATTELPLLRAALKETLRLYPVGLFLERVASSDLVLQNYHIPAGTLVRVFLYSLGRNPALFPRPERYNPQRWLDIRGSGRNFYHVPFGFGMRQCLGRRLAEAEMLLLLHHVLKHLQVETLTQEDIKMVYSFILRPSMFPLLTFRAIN
Kind of data set: Inhibition of human CYP11B1 expressed in V79 MZh cells using [14C]-deoxycorticosterone substrate incubated for 6 hrs by HPTLC method.

As to `Cc1nnc2n1-c1c(F)cc(-c3cncc(F)c3)cc1CC2`, it took 29.5 µM to reach half-maximal inhibition (IC50).
